Laboratory results taken from ChEMBL document CHEMBL4765381, “Neuropeptide FF and Its Receptors: Therapeutic Applications and Ligand Development” (J Med Chem, 2020).
Numbered stars: 1 amine (or outer) side, 2 acyl side, 3 side chain; on linkers, the order of the positions; unused ones are H or OH. Square brackets hold non-standard residues; d marks the D form. Peptide text beside a SMILES is read from it. X1 = O=C1[C@@H](N[*:1])Cc2ccccc2CN1CCC(=O)[*:2]; Dmt = Cc1cc(O)cc(C)c1C[C@H](N)C(=O)O

How the values were obtained:
[1] = target: T1, Neuropeptide FF receptor 2 (Homo sapiens, UniProt Q9Y5X5); assay: Displacement of [3H]-FFRF-NH2 from human FLAG-tagged NPFFR2 expressed in CHO cell membrane incubated for 30 mins by Topcount scintillation counting method
[2] = target: T2, Neuropeptide FF receptor 1 (Homo sapiens, UniProt Q9GZQ6); assay: Displacement of [3H]-FFRF-NH2 from human FLAG-tagged NPFFR1 expressed in CHO cell membrane incubated for 30 mins by Topcount scintillation counting method
[3] = target: Delta-type opioid receptor (Homo sapiens) (UniProt P41143); assay: Agonist activity at human delta-opioid receptor expressed in HEK293 cells assessed as inhibition of forskolin-induced cAMP accumulation preincubated for 15 mins followed by forskolin addition in presence of IBMX by Glo-sensor cAMP assay relative to control; type: functional, cell-based; settings: filed as agonist
[4] = target: Mu-type opioid receptor (Homo sapiens) (UniProt P35372); assay: Agonist activity at human mu-opioid receptor expressed in HEK293 cells assessed as inhibition of forskolin-induced cAMP accumulation preincubated for 15 mins followed by forskolin addition in presence of IBMX by Glo-sensor cAMP assay relative to control; type: functional, cell-based; settings: filed as agonist
Nociceptin receptor = Nociceptin receptor (Homo sapiens, UniProt P41146); assay: Agonist activity at human nociceptin receptor expressed in HEK293 cells assessed as inhibition of forskolin-induced cAMP accumulation incubated for 15 mins followed by forskolin addition in presence of IBMX by Glo-sensor cAMP assay; type: functional, cell-based
[5] = target: T3, Kappa-type opioid receptor (Homo sapiens, UniProt P41145); assay: Agonist activity at human kappa opioid receptor expressed in HEK293 cells assessed as inhibition of forskolin-induced cAMP accumulation incubated for 15 mins followed by forskolin addition in presence of IBMX by Glo-sensor cAMP assay; type: functional, cell-based
[6] = target: T1, Neuropeptide FF receptor 2; assay: Agonist activity at human NPFFR2 expressed in CHO cells by [35S]-GTP S binding assay relative to control; type: cell-based; settings: filed as agonist
[7] = target: T3, Kappa-type opioid receptor; assay: Agonist activity at human kappa opioid receptor expressed in HEK293 cells assessed as inhibition of forskolin-induced cAMP accumulation incubated for 15 mins followed by forskolin addition in presence of IBMX by Glo-sensor cAMP assay relative to control; type: functional, cell-based; settings: filed as agonist
[8] = target: T2, Neuropeptide FF receptor 1; assay: Agonist activity at human NPFFR1 expressed in CHO cells by [35S]-GTP S binding assay relative to control; type: cell-based; settings: filed as agonist
[9] = target: T1, Neuropeptide FF receptor 2; assay: Agonist activity at NPFFR2 (unknown origin) expressed in HEK293 cells assessed as inhibition of forskolin-induced cAMP accumulation incubated for 30 mins relative to control; type: functional, cell-based; settings: filed as agonist
[10] = target: T1, Neuropeptide FF receptor 2; assay: Agonist activity at human NPFFR2 expressed in CHO cells assessed as inhibition of forskolin-induced cAMP accumulation incubated for 30 mins by LANCE cAMP assay; type: functional, cell-based
[11] = target: T2, Neuropeptide FF receptor 1; assay: Agonist activity at NPFFR1 (unknown origin) expressed in mouse NIH3T3 cells by receptor selection and amplification technology assay relative to control; type: cell-based
[12] = target: T1, Neuropeptide FF receptor 2; assay: Agonist activity at NPFFR2 (unknown origin) expressed in mouse NIH3T3 cells by receptor selection and amplification technology assay; type: cell-based
[13] = target: T2, Neuropeptide FF receptor 1; assay: Displacement of 125I-NPFF from human NPFFR1 incubated for 2 hrs by TopCount scintillation counting method
[14] = target: T2, Neuropeptide FF receptor 1; assay: Agonist activity at NPFFR1 (unknown origin) expressed in HEK293T cells harboring EP2 incubated for 15 mins by cAMP assay relative to control; type: functional, cell-based
[15] = target: T1, Neuropeptide FF receptor 2; assay: Displacement of 125I-NPFF from human NPFFR2 incubated for 2 hrs by TopCount scintillation counting method
[16] = target: T3, Kappa-type opioid receptor; assay: Agonist activity at kappa opioid receptor (unknown origin) expressed in HEK-293A cells assessed as inhibition of forskolin-induced cAMP accumulation preincubated for 30 mins followed by [3H] cAMP addition measured after 2 hrs by scintillation counting method; type: functional, cell-based, HEK293-A
[17] = target: T2, Neuropeptide FF receptor 1; assay: Agonist activity at NPFFR1 (unknown origin) expressed in HEK-293A cells assessed as inhibition of forskolin-induced cAMP accumulation preincubated for 30 mins followed by [3H] cAMP addition measured after 2 hrs by scintillation counting method; type: functional, cell-based, HEK293-A
[18] = target: T1, Neuropeptide FF receptor 2; assay: Agonist activity at NPFFR2 (unknown origin) expressed in HEK-293A cells assessed as inhibition of forskolin-induced cAMP accumulation preincubated for 30 mins followed by [3H] cAMP addition measured after 2 hrs by scintillation counting method; type: functional, cell-based, HEK293-A
[19] = target: T1, Neuropeptide FF receptor 2; assay: Agonist activity at NPFFR2 (unknown origin) expressed in HEK293T cells harboring EP2 incubated for 15 mins by cAMP assay relative to control; type: functional, cell-based; settings: filed as agonist
[20] = target: T1, Neuropeptide FF receptor 2; assay: Agonist activity at NPFFR2 (unknown origin) expressed in mouse NIH3T3 cells by receptor selection and amplification technology assay relative to control; type: cell-based; settings: filed as agonist
[21] = target: T1, Neuropeptide FF receptor 2; assay: Agonist activity at NPFFR2 (unknown origin) expressed in HEK293T cells harboring EP2 incubated for 15 mins by cAMP assay; type: functional, cell-based
[22] = target: T2, Neuropeptide FF receptor 1; assay: Agonist activity at NPFFR1 (unknown origin) expressed in mouse NIH3T3 cells by receptor selection and amplification technology assay; type: cell-based
[23] = target: T2, Neuropeptide FF receptor 1; assay: Agonist activity at NPFFR1 (unknown origin) expressed in HEK293T cells harboring EP2 incubated for 15 mins by cAMP assay; type: functional, cell-based
[24] = target: T4, Pyroglutamylated RF-amide peptide receptor (Homo sapiens, UniProt Q96P65); assay: Displacement of [125I]-43RFa from human QRFP receptor expressed in CHO cell membrane by TopCount scintillation counter method; type: cell membranes
T4 sequence (Q96P65 whole entry): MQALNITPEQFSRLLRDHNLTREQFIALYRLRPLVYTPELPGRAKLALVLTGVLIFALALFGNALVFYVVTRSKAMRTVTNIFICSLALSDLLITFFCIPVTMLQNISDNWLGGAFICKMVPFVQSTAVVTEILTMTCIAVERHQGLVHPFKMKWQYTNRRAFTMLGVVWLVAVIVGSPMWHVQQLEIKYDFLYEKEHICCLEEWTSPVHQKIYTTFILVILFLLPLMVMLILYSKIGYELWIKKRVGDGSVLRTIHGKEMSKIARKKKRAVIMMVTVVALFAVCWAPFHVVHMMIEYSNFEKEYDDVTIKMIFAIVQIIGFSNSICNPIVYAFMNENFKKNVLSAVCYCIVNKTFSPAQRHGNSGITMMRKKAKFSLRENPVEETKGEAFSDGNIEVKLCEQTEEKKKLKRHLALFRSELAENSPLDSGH

[25] = target: T2, Neuropeptide FF receptor 1; assay: Displacement of [3H]-FFRF-NH2 from human NPFFR1 expressed in CHO cell membrane by Topcount scintillation counting method; type: cell membranes
[26] = target: T5, Prolactin-releasing peptide receptor (Homo sapiens, UniProt P49683); assay: Displacement of [3H]-PrRP-20 from human PrRP receptor expressed in CHO cell membrane by TopCount scintillation counter method; type: cell membranes
T5 sequence (P49683 whole entry): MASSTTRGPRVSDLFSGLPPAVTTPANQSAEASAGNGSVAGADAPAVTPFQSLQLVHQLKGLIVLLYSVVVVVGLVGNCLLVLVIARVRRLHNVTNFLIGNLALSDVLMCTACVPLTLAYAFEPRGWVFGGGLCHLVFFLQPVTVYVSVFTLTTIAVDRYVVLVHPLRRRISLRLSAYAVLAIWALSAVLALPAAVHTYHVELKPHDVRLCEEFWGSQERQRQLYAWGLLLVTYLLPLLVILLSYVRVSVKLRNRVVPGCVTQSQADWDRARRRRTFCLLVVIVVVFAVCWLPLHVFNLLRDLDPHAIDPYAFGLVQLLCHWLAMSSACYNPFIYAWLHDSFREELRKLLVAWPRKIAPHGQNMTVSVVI

KiSS-1 receptor = KiSS-1 receptor (Homo sapiens, UniProt Q969F8); assay: Displacement of [125I]-Kp-10 from human KISS1R expressed in CHO cell membrane by TopCount scintillation counter method; type: cell membranes
[27] = target: T1, Neuropeptide FF receptor 2; assay: Displacement of [3H]-FFRF-NH2 from human NPFFR2 expressed in CHO cell membrane by Topcount scintillation counting method; type: cell membranes
[28] = target: T1, Neuropeptide FF receptor 2; assay: Binding affinity to human NPFFR2 by radioligand binding assay
[29] = target: Neuropeptide FF receptor 2 (Rattus norvegicus, UniProt Q9EQD2); assay: Binding affinity to rat NPFFR2 by radioligand binding assay
[30] = target: T2, Neuropeptide FF receptor 1; assay: Binding affinity to human NPFFR1 by radioligand binding assay
[31] = target: Neuropeptide FF receptor 1 (Rattus norvegicus, UniProt Q9EP86); assay: Binding affinity to rat NPFFR1 by radioligand binding assay
[32] = target: T2, Neuropeptide FF receptor 1; assay: Antagonist activity at human NPFFR1 expressed in CHO cells assessed as reversal of NPVF-induced inhibition of forskolin-stimulated cAMP accumulation incubated for 10 mins by liquid scintillation counting method; type: functional, cell-based
[33] = target: T2, Neuropeptide FF receptor 1; assay: Displacement of [125I]YVP from human NPFFR1 expressed in CHO cells; type: cell-based
[34] = target: T1, Neuropeptide FF receptor 2; assay: Displacement of [125I]Tyr-NPFF from human NPFFR2 expressed in green monkey Cos-1 cells; type: cell-based

T1 sequence (Q9Y5X5 whole entry): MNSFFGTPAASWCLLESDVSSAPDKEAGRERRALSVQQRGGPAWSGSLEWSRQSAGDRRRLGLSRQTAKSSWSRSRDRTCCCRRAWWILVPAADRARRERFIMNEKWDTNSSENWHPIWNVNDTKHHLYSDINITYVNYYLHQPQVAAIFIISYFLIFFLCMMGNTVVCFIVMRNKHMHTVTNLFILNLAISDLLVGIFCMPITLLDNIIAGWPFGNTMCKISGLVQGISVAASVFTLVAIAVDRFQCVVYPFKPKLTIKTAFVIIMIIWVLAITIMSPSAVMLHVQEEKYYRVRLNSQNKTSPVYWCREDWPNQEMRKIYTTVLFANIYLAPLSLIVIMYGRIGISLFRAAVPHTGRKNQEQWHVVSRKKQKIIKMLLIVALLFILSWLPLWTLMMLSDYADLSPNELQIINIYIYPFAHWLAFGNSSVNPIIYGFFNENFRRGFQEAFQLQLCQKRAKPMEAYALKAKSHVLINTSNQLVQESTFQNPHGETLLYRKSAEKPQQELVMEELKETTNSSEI
T3 sequence (P41145 whole entry): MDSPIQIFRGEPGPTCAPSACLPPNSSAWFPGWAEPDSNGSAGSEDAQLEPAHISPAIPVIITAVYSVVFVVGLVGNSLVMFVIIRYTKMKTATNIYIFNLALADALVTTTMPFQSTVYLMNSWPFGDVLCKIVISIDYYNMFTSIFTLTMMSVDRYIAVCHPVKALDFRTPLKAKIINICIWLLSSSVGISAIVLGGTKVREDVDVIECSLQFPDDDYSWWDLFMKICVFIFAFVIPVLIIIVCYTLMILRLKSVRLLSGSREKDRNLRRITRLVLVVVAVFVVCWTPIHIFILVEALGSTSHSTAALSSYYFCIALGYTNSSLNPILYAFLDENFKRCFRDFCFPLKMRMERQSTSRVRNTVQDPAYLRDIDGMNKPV
T2 sequence (Q9GZQ6 whole entry): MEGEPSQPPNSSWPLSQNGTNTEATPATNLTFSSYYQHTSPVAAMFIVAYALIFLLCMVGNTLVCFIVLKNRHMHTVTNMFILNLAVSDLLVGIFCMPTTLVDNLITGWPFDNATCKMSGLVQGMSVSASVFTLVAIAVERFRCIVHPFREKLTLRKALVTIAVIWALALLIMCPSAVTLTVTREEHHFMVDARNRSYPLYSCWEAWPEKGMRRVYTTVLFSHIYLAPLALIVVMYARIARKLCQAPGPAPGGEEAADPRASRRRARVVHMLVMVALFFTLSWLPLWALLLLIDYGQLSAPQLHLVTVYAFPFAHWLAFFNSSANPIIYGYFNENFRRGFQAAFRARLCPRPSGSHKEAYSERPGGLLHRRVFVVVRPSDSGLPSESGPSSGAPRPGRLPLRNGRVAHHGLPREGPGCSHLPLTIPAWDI
Neuropeptide FF receptor 2 (Rattus norvegicus, UniProt Q9EQD2), sequence (Q9EQD2 whole entry): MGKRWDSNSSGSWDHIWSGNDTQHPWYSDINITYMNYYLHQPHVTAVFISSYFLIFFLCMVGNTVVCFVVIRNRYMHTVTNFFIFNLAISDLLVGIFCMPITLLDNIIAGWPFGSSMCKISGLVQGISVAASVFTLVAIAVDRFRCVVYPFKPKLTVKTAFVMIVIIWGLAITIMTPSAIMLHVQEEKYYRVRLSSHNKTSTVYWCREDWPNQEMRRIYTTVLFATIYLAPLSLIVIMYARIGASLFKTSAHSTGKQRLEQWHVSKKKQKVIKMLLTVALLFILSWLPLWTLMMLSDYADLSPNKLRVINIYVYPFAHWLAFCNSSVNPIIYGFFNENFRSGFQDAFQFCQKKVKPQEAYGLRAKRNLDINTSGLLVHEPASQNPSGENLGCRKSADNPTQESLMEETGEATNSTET
Mu-type opioid receptor (Homo sapiens), sequence (P35372 whole entry): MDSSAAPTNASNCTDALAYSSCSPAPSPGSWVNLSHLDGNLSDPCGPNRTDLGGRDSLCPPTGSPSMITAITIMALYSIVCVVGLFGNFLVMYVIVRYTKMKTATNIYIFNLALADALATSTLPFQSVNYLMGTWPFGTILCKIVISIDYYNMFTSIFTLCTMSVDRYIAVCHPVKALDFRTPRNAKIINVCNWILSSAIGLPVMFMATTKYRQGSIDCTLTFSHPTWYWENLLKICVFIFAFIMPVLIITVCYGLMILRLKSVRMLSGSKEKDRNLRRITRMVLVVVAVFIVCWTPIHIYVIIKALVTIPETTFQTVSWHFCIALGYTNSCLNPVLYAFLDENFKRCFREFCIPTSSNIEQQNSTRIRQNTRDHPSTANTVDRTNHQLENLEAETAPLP
KiSS-1 receptor, sequence (Q969F8 whole entry): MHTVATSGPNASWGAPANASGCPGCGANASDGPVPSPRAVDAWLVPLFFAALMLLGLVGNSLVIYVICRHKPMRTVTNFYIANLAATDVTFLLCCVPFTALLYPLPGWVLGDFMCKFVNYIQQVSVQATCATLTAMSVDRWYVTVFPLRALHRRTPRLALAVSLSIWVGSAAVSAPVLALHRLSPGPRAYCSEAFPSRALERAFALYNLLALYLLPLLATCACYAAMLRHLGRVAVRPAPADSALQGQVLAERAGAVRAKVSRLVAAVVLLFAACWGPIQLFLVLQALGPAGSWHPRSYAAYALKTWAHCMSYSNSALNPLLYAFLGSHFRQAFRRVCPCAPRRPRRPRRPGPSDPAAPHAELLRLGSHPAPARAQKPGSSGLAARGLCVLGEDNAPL
Neuropeptide FF receptor 1 (Rattus norvegicus, UniProt Q9EP86), sequence (Q9EP86 whole entry): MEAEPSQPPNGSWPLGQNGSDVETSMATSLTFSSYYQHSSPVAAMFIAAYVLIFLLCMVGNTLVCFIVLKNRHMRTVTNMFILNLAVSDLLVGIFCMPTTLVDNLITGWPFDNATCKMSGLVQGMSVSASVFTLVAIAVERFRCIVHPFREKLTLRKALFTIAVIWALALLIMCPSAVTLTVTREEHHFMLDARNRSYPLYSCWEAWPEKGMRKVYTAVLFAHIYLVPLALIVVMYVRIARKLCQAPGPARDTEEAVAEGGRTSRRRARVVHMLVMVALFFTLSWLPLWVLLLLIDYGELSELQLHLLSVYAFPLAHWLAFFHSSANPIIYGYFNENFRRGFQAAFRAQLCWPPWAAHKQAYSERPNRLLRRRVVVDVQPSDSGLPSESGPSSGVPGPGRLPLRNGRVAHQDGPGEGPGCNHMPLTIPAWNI
Delta-type opioid receptor (Homo sapiens), sequence (P41143 whole entry): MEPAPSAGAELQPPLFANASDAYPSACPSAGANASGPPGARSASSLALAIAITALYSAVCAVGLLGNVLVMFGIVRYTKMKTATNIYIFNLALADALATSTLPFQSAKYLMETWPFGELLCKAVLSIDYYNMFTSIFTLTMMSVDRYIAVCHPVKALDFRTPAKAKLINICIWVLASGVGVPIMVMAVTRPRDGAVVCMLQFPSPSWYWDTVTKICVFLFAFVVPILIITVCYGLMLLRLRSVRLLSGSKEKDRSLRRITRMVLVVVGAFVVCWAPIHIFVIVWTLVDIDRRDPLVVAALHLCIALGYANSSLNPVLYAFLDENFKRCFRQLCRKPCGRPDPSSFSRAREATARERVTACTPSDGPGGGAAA
Nociceptin receptor, sequence (P41146 whole entry): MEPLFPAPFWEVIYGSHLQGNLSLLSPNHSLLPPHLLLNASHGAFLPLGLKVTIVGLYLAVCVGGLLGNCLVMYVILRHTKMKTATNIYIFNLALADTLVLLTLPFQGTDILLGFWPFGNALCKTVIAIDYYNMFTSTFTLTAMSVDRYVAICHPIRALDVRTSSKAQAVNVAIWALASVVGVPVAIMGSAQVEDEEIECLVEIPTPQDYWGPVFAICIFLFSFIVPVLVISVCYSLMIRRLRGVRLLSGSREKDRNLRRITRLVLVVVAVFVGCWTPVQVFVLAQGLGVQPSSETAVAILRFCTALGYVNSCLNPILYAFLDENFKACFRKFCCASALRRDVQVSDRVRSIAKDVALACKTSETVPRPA

For `O=C(N[C@@H](CCCN1CCCCC1)C(=O)NCCc1ccccc1)c1ccccc1-c1ccccc1`, the Ki [1] was 560 nM and the Ki [2] was 172 nM.

`Cc1cc(O)cc(C)c1C[C@H](N)C(=O)N[C@H](CCCNC(=N)N)C(=O)N[C@H]1Cc2ccccc2CN(CCC(=O)N[C@@H](CCCNC(=N)N)C(=O)N[C@@H](Cc2ccccc2)C(N)=O)C1=O` (H-[Dmt][dR][X1]RF-NH2) was tested, and the Emax [3] was 89%, the Emax [4] was 92% and the EC50 (Nociceptin receptor) was greater than 10000 nM. The EC50 [5] was 108 nM, the Emax [6] was 111% and the Emax [7] was 95%. It also gave an Emax [8] of 88%.

`C[C@@H](NC(=O)[C@@H](N)Cc1ccc(O)cc1)C(=O)NCC(=O)N[C@@H](Cc1ccccc1)C(=O)N[C@@H](CCC(N)=O)C(=O)N1CCC[C@H]1C(=O)N[C@@H](CCC(N)=O)C(=O)N[C@@H](CCCNC(=N)N)C(=O)N[C@@H](Cc1ccccc1)C(N)=O` (H-Y[dA]GFQPQRF-NH2) showed an Emax [9] of 117% and an EC50 [10] of 178 nM.

`N=C(N)N/N=C/c1ccc(Br)c(Br)c1` gave an Efficacy [11] of 11%, an EC50 [12] of 794 nM and a Ki [13] of 100 nM. The Efficacy [14] was 23% and the Ki [15] was 126 nM.

`N=C(N)NCCC[C@H](NC(=O)[C@H](CCC(N)=O)NC(=O)[C@@H]1CCCN1C(=O)[C@H](CCC(N)=O)NC(=O)[C@H](Cc1ccccc1)NC(=O)[C@H](Cc1ccccc1)NC(=O)[C@@H]1CCCN1C(=O)[C@@H](N)Cc1ccc(O)cc1)C(=O)N[C@@H](Cc1ccccc1)C(N)=O` (H-YPFFQPQRF-NH2) was tested, and the EC50 [16] was 4.44 nM, the EC50 [17] was 599 nM and the EC50 [18] was 25.3 nM.

`N=C(N)N/N=C/c1ccc(-c2ccccc2C(F)(F)F)o1` was tested, and the Efficacy [19] was 114%, the Efficacy [20] was 72.1% and the Efficacy ([11]; filed as agonist) was 57.8%. For the same molecule, the EC50 [21] was 3160 nM, the Efficacy ([14]; filed as agonist) was 93% and the EC50 [22] was 251 nM. It also gave an EC50 [23] of 1260 nM.

With `NC1=NC=C(c2ccc(Cl)c(Cl)c2)CN1` the Ki [24] was greater than 5000 nM, the Ki [25] was 1 nM and the Ki [26] was greater than 5000 nM. For the same molecule, the Ki (KiSS-1 receptor) was greater than 5000 nM and the Ki [27] was 37 nM.

Molecule `Cc1cc(NC(=N)N)nc2ccccc12` has a Ki [28] of 91 nM, a Ki [29] of 185 nM and a Ki [30] of 13 nM. The Ki [31] was 7 nM.

`NC(=O)[C@H](Cc1ccccc1)NC(=O)[C@H](CCCN=C(N)N)NC(=O)C12CC3CC(CC(C3)C1)C2` showed an EC50 [32] of 4700 nM, a Ki [33] of 58 nM and a Ki [34] of 75 nM.
